Assay: xn = mol fraction of the nth substance listed
Conditions: 101 kPa, Liquid, Vibrating tube method

C=C[Si](C)(C)O[Si](C)(C)C=C [1,3-diethenyl-1,1,3,3-tetramethyldisiloxane] + COc1ccccc1
mass density [kg/m3]
Conditions	283.15 K	288.15 K	293.15 K	298.15 K	303.15 K
x1 = 0.0501	987.07	982.37	977.74	973.02	968.3
x1 = 0.1	972.12	967.42	962.75	958.01	953.27
x1 = 0.15	958.3	953.58	948.89	944.14	939.38
x1 = 0.2004	945.4	940.66	935.96	931.19	926.42
x1 = 0.2499	933.62	928.87	924.15	919.36	914.57
x1 = 0.3	922.54	917.77	913.04	908.24	903.45
x1 = 0.35	912.24	907.47	902.73	897.91	893.1
x1 = 0.3997	902.67	897.88	893.12	888.29	883.45
x1 = 0.4499	893.63	888.81	884.04	879.2	874.35
x1 = 0.5001	885.14	880.31	875.53	870.68	865.82
x1 = 0.5499	877.24	872.4	867.62	862.75	857.88
x1 = 0.6	869.73	864.89	860.09	855.21	850.33
x1 = 0.6499	862.68	857.84	853.04	848.15	843.25
x1 = 0.6999	856.02	851.16	846.35	841.46	836.55
x1 = 0.7499	849.72	844.85	840.03	835.13	830.23
x1 = 0.8	843.72	838.85	834.02	829.11	824.19
x1 = 0.8499	838.07	833.19	828.35	823.44	818.52
x1 = 0.8998	832.69	827.81	822.98	818.06	813.14
x1 = 0.9499	827.56	822.67	817.83	812.91	808
x1 = 1	822.67	817.77	812.92	808	803.07

C=C[Si](C)(C)O[Si](C)(C)C=C [1,3-diethenyl-1,1,3,3-tetramethyldisiloxane] + Clc1ccccc1
mass density [kg/m3]
Conditions	283.15 K	288.15 K	293.15 K	298.15 K	303.15 K
x1 = 0.05	1088.46	1083.08	1077.71	1072.36	1066.76
x1 = 0.0998	1062.49	1057.12	1051.77	1046.38	1040.76
x1 = 0.15	1038.61	1033.26	1027.97	1022.56	1017.01
x1 = 0.1996	1017.1	1011.78	1006.49	1001.12	995.49
x1 = 0.25	997.1	991.8	986.55	981.23	975.62
x1 = 0.2999	978.91	973.63	968.41	963.12	957.62
x1 = 0.35	962.04	956.8	951.57	946.3	940.79
x1 = 0.3999	946.48	941.25	936.1	930.87	925.47
x1 = 0.4496	932.12	926.93	921.78	916.57	911.17
x1 = 0.4999	918.61	913.45	908.32	903.14	897.77
x1 = 0.5499	906.09	900.94	895.84	890.68	885.33
x1 = 0.6	894.37	889.27	884.19	879.04	873.73
x1 = 0.6469	884.06	878.98	873.94	868.82	863.55
x1 = 0.6998	873.18	868.11	863.11	858.02	852.81
x1 = 0.7499	863.47	858.44	853.45	848.41	843.25
x1 = 0.7997	854.39	849.39	844.44	839.42	834.3
x1 = 0.8499	845.78	840.8	835.87	830.88	825.82
x1 = 0.8996	837.7	832.75	827.85	822.88	817.86
x1 = 0.9497	830	825.08	820.22	815.27	810.3
x1 = 1	822.68	817.77	812.94	808.01	803.06
